From publication PMC10209615, “Pharmacological inhibition of LSD1 suppresses growth of hepatocellular carcinoma by inducing GADD45B” (MedComm, 2023)

Key:
nine HCC cell lines = assay: CCK‐8 cell proliferation assay; format: cell-based; conditions: Homo sapiens; post‐treatment for 144 h; read-out: half‐maximal inhibitory concentration (IC50), proliferation of HCC cell lines
Method: Cell viability was determined using Cell Counting Kit‐8 (CCK8; Dojindo) or 3‐(4, 5‐dimethylthiazol‐2‐yl)‐2,5‐diphenyltetrazoliumbromide (MTT, Sigma Aldrich) assay. […] Consequently, cell viability was determined using a microplate reader (Thermo Fisher) at 450 nm for CCK8 assay, or 570 nm for MTT assay, at different time points. The IC50 values and CI values were analyzed and calculated using GraphPad Prism 8 and CompuSyn (version 1.0; http://www.combosyn.com), respectively.

HCCLM3 = assay: Cell proliferation assay; format: cell-based; conditions: Homo sapiens, HCCLM3, 144 h
Method: (§1) Cell viability was determined using Cell Counting Kit‐8 (CCK8; Dojindo) or 3‐(4, 5‐dimethylthiazol‐2‐yl)‐2,5‐diphenyltetrazoliumbromide (MTT, Sigma Aldrich) assay. A selection of HCC cells was exposed to gradient concentration of ZY0511 for 96–144 h, or exposed to other LSD1 inhibitors including SP2509, GSK2879552, and ORY1001 for 144 h, or exposed to DTP3, which enhanced the apoptosis induction function of GADD45B for 96 h in combination therapy. Consequently, cell viability was determined using a microplate reader (Thermo Fisher) at 450 nm for CCK8 assay, or 570 nm for MTT assay, at different time points. The IC50 values and CI values were analyzed and calculated using GraphPad Prism 8 and CompuSyn (version 1.0; http://www.combosyn.com), respectively.

Hep3B = assay: Cell proliferation assay; format: cell-based; conditions: Homo sapiens, 144 h
Method: as §1

HepG2 = assay: Cell proliferation assay; format: cell-based; conditions: Homo sapiens, HepG2, 144 h
Method: as §1

HuH6 = assay: Cell proliferation assay; format: cell-based; conditions: Homo sapiens, HuH-6; HuH6, 144 h
Method: as §1

HuH7 = assay: Cell proliferation assay; format: cell-based; conditions: Homo sapiens, Huh-7; HuH7, 144 h
Method: as §1

JHH7 = assay: Cell proliferation assay; format: cell-based; conditions: Homo sapiens, JHH7, 144 h
Method: as §1

PLC/PRF/5 = assay: Cell proliferation assay; format: cell-based; conditions: Homo sapiens; PLC/PRF/5, 144 h
Method: as §1

QGY7701 = assay: Cell proliferation assay; format: cell-based; conditions: Homo sapiens, QGY7701, 144 h
Method: as §1

SK-Hep-1 = assay: Cell proliferation assay; format: cell-based; conditions: Homo sapiens, SK-HEP1; SK-Hep-1, 144 h
Method: as §1

[1] = target: Truncated human LSD1 (residues 172–836) (Homo sapiens, UniProt O60341); assay: Surface plasmon resonance (Biacore); format: binding; conditions: 25°C, read-out: dissociation constant (KD)
Method: Briefly, the truncated LSD1 was cloned into a pET28a plasmid and expressed in Escherichia coli BL21(DE3) at 18°C (Novagen). The fusion protein was purified by the nickel charged nitrilotriacetic acid (Ni‐NTA, GE Healthcare) with buffer A (20 mM Tris‐HCl, pH 8.5, 10 mM imidazole, 500 mM NaCl, and 2 mM dithiothreitol DTT) and buffer B (20 mM Tris‐HCl, Ph 8.5, 500 mM imidazole, 500 mM NaCl, and 2 mM DTT). Then, LSD1 was digested overnight with Thrombin Protease (Sigma Aldrich) to remove His‐tag and dialyzed against buffer C (20 mM Tris‐HCl, pH 8.5, 150 mM NaCl, and 2mM DTT) overnight at 4°C. The next day, the target protein was applied to Ni‐NTA again to remove the uncleaved His‐tag protein. LSD1 without His‐tag was further purified by an S200 16/600 column (GE Healthcare) in buffer C. The quality of purified LSD1 was checked by sodium dodecyl sulphate‐polyacrylamide gel electrophoresis (SDS‐PAGE).[47]
LSD1 protein was immobilized on a CM5 sensor chip by the amine‐coupling method. […] The binding kinetics was analyzed using BIAevaluation software (version 4.1, Biacore).

Structure (SMILES) | IC50 (nine HCC cell lines) [µM] | IC50 (HCCLM3) [µM] | IC50 (Hep3B) [µM] | IC50 (HepG2) [µM] | IC50 (HuH6) [µM] | IC50 (HuH7) [µM] | IC50 (JHH7) [µM] | IC50 (PLC/PRF/5) [µM] | IC50 (QGY7701) [µM] | IC50 (SK-Hep-1) [µM] | Kd [1] [µM]
O=C(O)c1ccc(CN2CCC(CN[C@@H]3C[C@H]3c3ccccc3)CC2)cc1 [GSK2879552] | ≥ 28.6 | > 100 | > 100 | > 100 | > 100 | > 100 | > 100 | > 100 | > 100 | > 100 | 
N[C@H]1CC[C@H](N[C@@H]2C[C@H]2c2ccccc2)CC1 [ORY1001] | ≥ 28.6 | > 100 | 28.6 ± 6.72 | > 100 | 46.3 ± 1.39 | > 100 | 56.2 ± 9.07 | > 100 | > 100 | 35.8 ± 5.05 | 
C/C(=N\NC(=O)c1cccc(S(=O)(=O)N2CCOCC2)c1)c1cc(Cl)ccc1O [SP2509] |  |  |  |  |  |  |  |  |  |  | 0.0198
